Experimental data taken from PubChem BioAssay (NCI).
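Interpolation was linear, between the two tested concentrations surrounding the appropriate level; five concentrations were tested over 48 hours in 96-well plates. TGI: total growth inhibition.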

Columns and labels:
Test in all cases: growth of human tumour cells (NCI), 48 h
DU-145 prostate = tested on: DU-145 prostate
HL-60(TB) leukemia = tested on: HL-60(TB) leukemia
RXF 393 renal = tested on: RXF 393 renal
HS 578T breast = tested on: HS 578T breast
SNB-19 CNS = tested on: SNB-19 CNS
HOP-92 NSCLC = tested on: HOP-92 NSCLC
CAKI-1 renal = tested on: CAKI-1 renal
SK-MEL-28 melanoma = tested on: SK-MEL-28 melanoma
RPMI-8226 leukemia = tested on: RPMI-8226 leukemia
COLO 205 colon = tested on: COLO 205 colon
OVCAR-4 ovarian = tested on: OVCAR-4 ovarian
SW-620 colon = tested on: SW-620 colon
MOLT-4 leukemia = tested on: MOLT-4 leukemia
UO-31 renal = tested on: UO-31 renal
A498 renal = tested on: A498 renal
NCI-H23 lung = tested on: NCI-H23 lung
SK-MEL-5 melanoma = tested on: SK-MEL-5 melanoma
KM12 colon = tested on: KM12 colon
K-562 leukemia = tested on: K-562 leukemia

SMILES | TGI (DU-145 prostate) [µM] | TGI (HL-60(TB) leukemia) [µM] | TGI (RXF 393 renal) [µM] | TGI (HS 578T breast) [µM] | TGI (SNB-19 CNS) [µM] | TGI (HOP-92 NSCLC) [µM] | TGI (CAKI-1 renal) [µM] | TGI (SK-MEL-28 melanoma) [µM] | TGI (RPMI-8226 leukemia) [µM] | TGI (COLO 205 colon) [µM] | TGI (OVCAR-4 ovarian) [µM] | TGI (SW-620 colon) [µM] | TGI (MOLT-4 leukemia) [µM] | TGI (UO-31 renal) [µM] | TGI (A498 renal) [µM] | TGI (NCI-H23 lung) [µM] | TGI (SK-MEL-5 melanoma) [µM] | TGI (KM12 colon) [µM] | TGI (K-562 leukemia) [µM]
C=C1[C@H](OC(=O)C(C)C)[C@]23CC4(O)[C@@H]5[C@@]6(C)CCC[C@]57C([C@@H]2C[C@@]1(O)[C@H](O)[C@@H]73)N4C6 | > 100 | > 100 | > 100 | > 100 | > 100 | > 100 | > 100 | > 100 | > 100 | > 100 | > 100 | > 100 | > 100 | > 100 | > 100 | > 100 | > 100 | > 100 | 
COc1cc(OC)cc(OCc2ccc3nc(-c4ccccc4)c(Cl)nc3c2)c1 | > 100 | > 100 |  | > 100 | 66.9 | 66.4 | 28.1 | > 100 | > 100 | 68.9 | > 100 | > 100 | 74.1 | > 100 | 76.8 | > 100 | 69.9 | > 100 | 
CC(C)(C)OC(=O)CC(NC(=O)OC(C)(C)C)C(=O)N[C@@H]1CCCC[C@H]1C(=O)OCc1ccccc1 (stereo partly drawn) | 99.8 | 68.9 | > 100 | 48 | 69.3 | > 100 | > 100 | > 100 | 95.4 | 38.2 | > 100 | > 100 | 89.1 | 53.8 |  | 85.3 | 24.5 | > 100 | > 100
O=[N+]([O-])c1ccc2[nH]nc(OCc3ccccn3)c2c1 | > 100 | > 100 | > 100 | > 100 | > 100 | > 100 | > 100 | > 100 | > 100 | > 100 | > 100 | > 100 | > 100 | > 100 | > 100 | > 100 | > 100 | > 100 | > 100
CC1=NNC(=O)C1C1CC(c2c[nH]c3ccccc23)=NNC1=S (stereo not drawn) | > 100 | > 100 | > 100 | > 100 | > 100 | > 100 | > 100 | > 100 | > 100 | > 100 |  | > 100 | > 100 | > 100 | > 100 | > 100 | > 100 | > 100 | > 100
CC(=O)N1CN2C(=O)CCC2c2ccccc21 (stereo not drawn) | > 100 |  | > 100 | > 100 | > 100 | > 100 | > 100 | > 100 | > 100 | > 100 | > 100 | > 100 | > 100 | > 100 | > 100 | > 100 | > 100 | > 100 | > 100
